Reference: publication PMC6225228, “Design, Synthesis and Evaluation of N-pyrazinylbenzamides as Potential Antimycobacterial Agents” (Molecules : A Journal of Synthetic Chemistry and Natural …, 2018)
≈ marks a conversion by molar mass, not a printed value. Read-outs that look alike come from different tables or passages of the source.

Key:
[1] = system: Candida albicans ATCC 44859; test: Antifungal microdilution broth, CA; assay type: cell-based; conditions: Candida albicans, read-out: MIC CA
Candida tropicalis 156 = test: Antifungal microdilution broth, CT; assay type: cell-based; conditions: read-out: MIC CT
Candida krusei E28 = test: Antifungal microdilution broth, CK; assay type: cell-based; conditions: Pichia kudriavzevii, read-out: MIC CK
Candida glabrata 20/I = test: Antifungal microdilution broth, CG; assay type: cell-based; conditions: Nakaseomyces glabratus, 20/I, read-out: MIC CG
Trichosporon asahii 1188 = test: Antifungal microdilution broth, TA; assay type: cell-based; conditions: read-out: MIC TA
[2] = system: Aspergillus fumigatus 231; test: Antifungal microdilution broth, AF; assay type: cell-based; conditions: read-out: MIC AF
[3] = system: Lichtheimia corymbifera 272; test: Antifungal microdilution broth, LC; assay type: cell-based; conditions: read-out: MIC LC
[4] = system: Trichophyton interdigitale 445; test: Antifungal microdilution broth, TI; assay type: cell-based; conditions: read-out: MIC TI
[5] = system: Mycobacterium smegmatis CCM 4622 (ATCC 607); test: Antimycobacterial microdilution, M. smegmatis; assay type: cell-based; conditions: Middlebrook 7H9 with OADC, resazurin; for MIC: Mycolicibacterium smegmatis, read-out: M. smeg. ATCC 607 MIC
[6] = system: Mycobacterium tuberculosis H37Rv CNCTC My 331/88 (ATCC 27294); test: Antimycobacterial microdilution MABA, M. tuberculosis; assay type: cell-based; conditions: Middlebrook 7H9 with OADC growth supplement, pH = 6.6, MABA; for MIC: Mycobacterium tuberculosis, read-out: Mtb H37Rv ATCC 27294 MIC
[7] = system: M. kansasii CNCTC My 235/80 (ATCC 12478); test: Antimycobacterial microdilution MABA, M. kansasii; assay type: cell-based, Mycobacterium kansasii; conditions: for MIC: Mycobacterium kansasii
[8] = system: M. avium ssp. avium CNCTC My 80/72 (ATCC 15769); test: Antimycobacterial microdilution MABA, M. avium; assay type: cell-based, Mycobacterium avium; conditions: for MIC: Mycobacterium avium
[9] = Trichosporon asahii, 1188, 24 h
[10] = Trichosporon asahii, 1188, 48 h
[11] = Aspergillus fumigatus, 231, 24 h
[12] = Aspergillus fumigatus, 231, 48 h
[13] = Lichtheimia corymbifera, 272, 24 h
[14] = Lichtheimia corymbifera, 272, 48 h
[15] = Trichophyton interdigitale, 445, 72 h
[16] = Trichophyton interdigitale, 445, 120 h
[17] = Middlebrook 7H9 with OADC, pH 6.6, MABA

Row | SMILES | MIC ([1]; ATCC44859, 24 h) [µM] | MIC ([1]; ATCC44859, 48 h) [µM] | MIC (Candida tropicalis 156; Candida tropicalis, 156, 24 h) [µM] | MIC (Candida tropicalis 156; Candida tropicalis, 156, 48 h) [µM] | MIC (Candida krusei E28; E28, 24 h) [µM] | MIC (Candida krusei E28; E28, 48 h) [µM] | MIC (Candida glabrata 20/I; 24 h) [µM] | MIC (Candida glabrata 20/I; 48 h) [µM] | MIC (Trichosporon asahii 1188; [9]) [µM] | MIC (Trichosporon asahii 1188; [10]) [µM] | MIC [2, 11] [µM] | MIC [2, 12] [µM] | MIC [3, 13] [µM] | MIC [3, 14] [µM] | MIC [4, 15] [µM] | MIC [4, 16] [µM] | MIC [5] [µg/mL] | Mtb H37Rv ATCC 27294 MIC [6] [µg/mL] | M. kans. ATCC 12478 MIC [7, 17] [µg/mL] | MIC [6] [µg/mL] | also measured
1 | C[C@@H]1[C@H](O)[C@@H](C)/C=C/C=C/C=C/C=C/C=C/C=C/C=C/[C@H](O[C@@H]2O[C@H](C)[C@@H](O)[C@H](N)[C@@H]2O)C[C@@H]2O[C@](O)(C[C@@H](O)C[C@@H](O)[C@H](O)CC[C@@H](O)C[C@@H](O)CC(=O)O[C@H]1C)C[C@H](O)[C@H]2C(=O)O [AMPB, amphotericin B, reference compound] | 0.12 (≈ 0.111 µg/mL) | 0.49 (≈ 0.453 µg/mL) | 1.95 (≈ 1.8 µg/mL) | 1.95 (≈ 1.8 µg/mL) | 1.95 (≈ 1.8 µg/mL) | 1.95 (≈ 1.8 µg/mL) | 0.98 (≈ 0.906 µg/mL) | 1.95 (≈ 1.8 µg/mL) | 0.49 (≈ 0.453 µg/mL) | 0.98 (≈ 0.906 µg/mL) | 1.95 (≈ 1.8 µg/mL) | 1.95 (≈ 1.8 µg/mL) | 7.81 (≈ 7.22 µg/mL) | 7.81 (≈ 7.22 µg/mL) | 1.95 (≈ 1.8 µg/mL) | 1.95 (≈ 1.8 µg/mL) | – | – | – | – | –
2 | O=C(O)c1cn(C2CC2)c2cc(N3CCNCC3)c(F)cc2c1=O [CPX, ciprofloxacin, reference compound] | – | – | – | – | – | – | – | – | – | – | – | – | – | – | – | – | 0.195 (≈ 0.589 µM) | – | – | – | –
3 | O=C(Nc1cncc(Cl)n1)c1ccccc1O [Compound 3b] | – | – | – | – | – | – | – | – | – | – | – | – | – | – | – | – | – | > 100 | > 100 | – | M. avium ATCC 15769 MIC [8, 17]: > 100 µg/mL; M. smeg. ATCC 607 MIC [5]: 250 µg/mL
4 | CCc1ccc(C(=O)Nc2cncc(Cl)n2)cc1 [Compound 3i] | – | – | – | – | – | – | – | – | – | – | – | – | – | – | – | – | ≥ 500 | – | – | > 100 | MIC ([7]; ATCC12478, Middlebrook 7H9 with OADC, pH 6.6, MABA, read-out: M. kans. ATCC 12478 MIC): > 100 µg/mL; MIC ([8]; ATCC15769, Middlebrook 7H9 with OADC, pH 6.6, MABA, read-out: M. avium ATCC 15769 MIC): > 100 µg/mL
5 | OC(Cn1cncn1)(Cn1cncn1)c1ccc(F)cc1F [FLU, fluconazole, reference compound] | 0.24 (≈ 0.0735 µg/mL) | 0.24 (≈ 0.0735 µg/mL) | > 500 | > 500 | 125 (≈ 38.3 µg/mL) | 250 (≈ 76.6 µg/mL) | 31.2 (≈ 9.57 µg/mL) | 250 (≈ 76.6 µg/mL) | 250 (≈ 76.6 µg/mL) | 500 (≈ 153 µg/mL) | > 500 | > 500 | > 500 | > 500 | 7.81 (≈ 2.39 µg/mL) | 125 (≈ 38.3 µg/mL) | – | – | – | – | –
6 | NNC(=O)c1ccncc1 [INH, isoniazid, reference compound] | – | – | – | – | – | – | – | – | – | – | – | – | – | – | – | – | – | 0.1 to 0.39 | 6.25 to 12.5 | 0.1 to 0.2 (≈ 0.729 to 1.46 µM) | MIC ([7]; ATCC12478, pH 6.6, read-out: M. kans. ATCC 12478 MIC, Middlebrook 7H9 with OADC, pH 6.6, MABA): 3.13 to 12.5 µg/mL (≈ 22.8 to 91.1 µM); MIC ([8]; ATCC15769, pH 6.6, read-out: M. avium ATCC 15769 MIC): 6.25 to 12.5 µg/mL (≈ 45.6 to 91.1 µM)
